Measurements: patent US9011863B2, “Combinations of kinase inhibitors for the treatment of cancer” (Exelixis, Inc., priority 2010, dated 2015)

What was measured:
FoxO1 and FoxO3a = assay: cytoplasmic and nuclear fractionation, FoxO immunoblot; type: cell-based, human; conditions: BT474 and MDA453; 6 μM compound A or 2 μM 5J8; 4 hours
Protocol: Nuclear (Nu) and cytoplasmic (Cy) extracts were isolated and subjected to immunoblotting with FoxO1 and FoxO3a antibodies. Loading controls for Nu: HDAC3; for Cy: RhoA (BT474) and MEK1/2 (MDA453).
Cytoplasmic and nuclear extracts were prepared using the Nuclear Extract Kit from Active Motif. Briefly, cells were plated in 100-mm dishes, treated with inhibitors at the indicated concentrations for 3-4 hours, washed with ice-cold PBS/phosphatase inhibitors, lysed in hypotonic buffer and centrifuged for 30 seconds at 14,000 rpm at 4° C. to collect the supernatant (cytoplasmic extract). The pellet (nuclear fraction) was resuspended in complete lysis buffer and centrifuged for 10 minutes at 14,000 rpm at 4° C. to collect the supernatant (nuclear fraction).

[1] = test system: p85-associated pTyr proteins in BT474 cells; assay: p85 immunoprecipitation with pTyr / HER3 immunoblot; type: cell-based, human; conditions: BT474, 0-20 μM, 24 hours
Protocol: FIG. 13C depicts a photomicrrograph of immunoblots of cell lysates from BT474 cells which were treated with 0-20 μM compound A for 24 hours. Cells were then lysed, and 0.5 mg of lysate subjected to immunoprecipitation (IP) with a p85 antibody followed by p85 and pTyr.
FIG. 13D depicts a photomicrrograph of immunoblots of cell lysates from BT474 cells which were treated with 0-20 μM compound A for 24 hours. Cells were then lysed, and 0.5 mg of lysate subjected to immunoprecipitation (IP) with a p85 antibody followed by p85 and HER3.
Immunoprecipitation, immunoblotting, and RTK assays were performed according to published methods. […] Immunoreactive signals were detected by enhanced chemilluminsecence (Pierce, Rockford, Ill., USA). […]
In HER2 overexpressing cells, although not bound by any particular theory, it is believed that the main mechanism of activation of PI3K is the coupling of pHER3 to an SH2 domain in the N-terminus of p85, the regulatory subunit of PI3K. […] Consistent with previous studies, the p85-associated approximately 200-kDa band was also detected with HER3 and pHER3^Y1197 antibodies as shown in FIGS. 13D and 13F. […]

[2] = test system: human breast cancer cell lines; assay: three-dimensional (3D) growth in Matrigel; type: cell-based; conditions: 3D Matrigel, 2.5% FBS, read-out: IC50 in cells tested in 3D
Protocol: Cells were seeded in 8-well chamber slides in growth-factor reduced Matrigel (BD Biosciences, San Jose Calif., USA)±compound A according to published methods. Fresh medium and drugs were replenished every third day. Colonies were photographed with an inverted light microscope with an ocular magnification of 10 times on the days recited in figures herein.
(§1) A panel of breast cancer cell lines with dysregulated PI3K activity was treated with increasing doses of compound A under two- and three-dimensional (2D and 3D) growth conditions. All experiments were conducted in 2.5% FBS-containing media, unless otherwise stated. […] This was further confirmed by immunoblot analysis of biomarkers of cell death and G1-S cell cycle transition in lysates from cells treated for 24 hours with compound A as shown in FIG. 10B.

HER3 protein = assay: half-life of the HER3 protein with cycloheximide; type: cell-based, human; conditions: BT474 cells
Protocol: The half-life of the HER3 protein in absence and presence of compound A was determined using cycloheximide, an inhibitor of protein synthesis. […] Next the levels of HER3 mRNA was examined by qPCR upon inhibition of PI3K over a time course using the approximate IC50 of compound A (6 μM).

[3] = test system: human breast cancer cell lines; assay: cell proliferation (cell counting) and crystal violet assays; type: cell-based
Protocol: Cells were seeded in 12-well plates at a density of 2.5-3.5×10^4 cells/well in medium containing 2.5% FBS±inhibitors. Media and inhibitors were replaced every 3 days. On the days indicated in figures, cells were trypsinized and counted in a Beckman Coulter counter. For crystal violet assay, 5×10^4 cells/well were seeded in 6-well plates and grown in absence or presence of compound A for 6 days, fixed in methanol, stained with crystal violet, and photographed using an Olympus DP10 camera.
as §1

Q: Which results are given for `COc1ccc(Cl)c(Nc2nc3ccccc3nc2NS(=O)(=O)c2cccc(NC(=O)C(C)(C)N)c2)c1` [Compound A]?
A: subcellular distribution of FoxO1 and FoxO3a (FoxO1 and FoxO3a): accumulation of both FoxO factors in the nucleus of BT474 and MDA453 cells; p85-associated pTyr band [1]: dose-dependent increase of approximately 200-kDa main pTyr band; IC50 [2]: ≤ 6 µM; rate of decay of the HER3 protein (HER3 protein): not significantly altered; cell number below baseline ([3]; 20 μM): induced cell death; IC50 ([3]; Homo sapiens, panel of breast cancer cell lines, 2.5% FBS, read-out: IC50 of cell growth (2D)): ~6 µM; 2D growth ([3]; panel of breast cancer cell lines, increasing doses): inhibited the 2D growth of all cell lines in a dose-dependent manner
